Patent US5968903A, “Inhibition of H. pylori proliferation” (Biomeasure, Incorporated, priority 1998, dated 1999)
pKi: −log10 of the molar value. Read-outs that look alike come from different tables or passages of the source. Positions of bridges follow the written chain, without caps; N, C: chain ends. Non-standard residues stand in square brackets, D forms with d. Residues, ends and D or L forms follow the SMILES beside them. *: point of attachment. X1 = O=C(CN1CCN(CCO)CC1)*

Columns and labels:
human SSTR-2 = human SSTR-2 (Homo sapiens, UniProt P30874); test: Somatostatin receptor binding assay, hSSTR-2
human SSTR-1 = human SSTR-1 (Homo sapiens, UniProt P30872); test: Somatostatin receptor binding assay, hSSTR-1
human SSTR-3 = human SSTR-3 (Homo sapiens, UniProt P32745); test: Somatostatin receptor binding assay, hSSTR-3
H. pylori ATCC43504 [1] = test: H. pylori proliferation in Brucella broth, strain ATCC43504; type: cell-based; details: for ATCC43504 bacteria number: 10^-11 mol/L, 48 h
human SSTR-5 = human SSTR-5 (Homo sapiens, UniProt P35346); test: Somatostatin receptor binding assay, hSSTR-5
human SSTR-4 = human SSTR-4 (Homo sapiens, UniProt P31391); test: Somatostatin receptor binding assay, hSSTR-4
H. pylori ATCC43504 [2] = details: ATCC43504, 48 h
[3] = [125I-Tyr11]somatostatin-14, CHO-K1 membranes, read-out: Ki hSSTR-2
[4] = [125I-Tyr11]somatostatin-14, CHO-K1 membranes
[5] = [125I-Tyr11]somatostatin-14, CHO-K1 membranes, read-out: Ki hSSTR-1
[6] = [125I-Tyr11]somatostatin-14, CHO-K1 membranes, read-out: Ki hSSTR-3

Chain of human SSTR-1 (P30872 whole entry): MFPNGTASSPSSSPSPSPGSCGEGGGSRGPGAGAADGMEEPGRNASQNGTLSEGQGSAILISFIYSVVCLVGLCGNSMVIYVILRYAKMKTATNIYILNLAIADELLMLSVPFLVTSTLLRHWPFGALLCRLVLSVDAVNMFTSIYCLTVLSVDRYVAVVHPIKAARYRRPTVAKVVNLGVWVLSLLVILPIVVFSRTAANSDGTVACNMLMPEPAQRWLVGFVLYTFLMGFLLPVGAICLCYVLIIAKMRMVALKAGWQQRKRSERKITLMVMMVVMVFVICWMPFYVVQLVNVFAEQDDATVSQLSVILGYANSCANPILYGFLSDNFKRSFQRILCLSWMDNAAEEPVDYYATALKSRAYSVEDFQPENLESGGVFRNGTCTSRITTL
Chain of human SSTR-5 (P35346 whole entry): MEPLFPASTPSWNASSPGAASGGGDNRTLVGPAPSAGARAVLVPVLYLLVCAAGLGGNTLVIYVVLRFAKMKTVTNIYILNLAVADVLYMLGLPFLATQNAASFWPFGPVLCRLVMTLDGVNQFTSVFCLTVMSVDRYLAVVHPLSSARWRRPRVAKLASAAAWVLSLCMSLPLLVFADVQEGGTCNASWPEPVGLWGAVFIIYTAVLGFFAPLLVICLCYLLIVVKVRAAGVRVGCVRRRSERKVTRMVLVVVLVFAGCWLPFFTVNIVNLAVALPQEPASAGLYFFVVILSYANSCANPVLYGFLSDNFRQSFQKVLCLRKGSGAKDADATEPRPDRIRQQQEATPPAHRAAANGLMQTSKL
Chain of human SSTR-3 (P32745 whole entry): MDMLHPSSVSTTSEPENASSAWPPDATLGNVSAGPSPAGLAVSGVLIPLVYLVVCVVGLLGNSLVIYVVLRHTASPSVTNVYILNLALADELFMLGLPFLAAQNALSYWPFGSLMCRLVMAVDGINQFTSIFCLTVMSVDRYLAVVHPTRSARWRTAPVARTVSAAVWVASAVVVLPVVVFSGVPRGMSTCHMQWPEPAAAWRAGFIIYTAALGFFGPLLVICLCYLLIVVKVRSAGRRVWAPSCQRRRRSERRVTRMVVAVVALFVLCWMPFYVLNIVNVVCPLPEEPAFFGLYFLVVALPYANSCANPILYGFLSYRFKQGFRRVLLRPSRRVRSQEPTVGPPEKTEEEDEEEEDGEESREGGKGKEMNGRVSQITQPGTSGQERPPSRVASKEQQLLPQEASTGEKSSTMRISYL
Chain of human SSTR-2 (P30874 whole entry): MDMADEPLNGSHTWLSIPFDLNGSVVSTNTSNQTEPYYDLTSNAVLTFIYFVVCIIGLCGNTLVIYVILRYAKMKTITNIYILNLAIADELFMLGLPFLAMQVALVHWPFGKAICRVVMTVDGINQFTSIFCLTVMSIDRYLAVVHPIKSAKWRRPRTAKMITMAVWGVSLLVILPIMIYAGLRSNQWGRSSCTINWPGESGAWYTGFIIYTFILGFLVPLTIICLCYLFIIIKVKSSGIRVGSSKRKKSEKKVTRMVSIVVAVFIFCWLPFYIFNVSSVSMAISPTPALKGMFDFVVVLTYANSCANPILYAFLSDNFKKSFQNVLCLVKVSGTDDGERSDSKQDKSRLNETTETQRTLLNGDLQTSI
Chain of human SSTR-4 (P31391 whole entry): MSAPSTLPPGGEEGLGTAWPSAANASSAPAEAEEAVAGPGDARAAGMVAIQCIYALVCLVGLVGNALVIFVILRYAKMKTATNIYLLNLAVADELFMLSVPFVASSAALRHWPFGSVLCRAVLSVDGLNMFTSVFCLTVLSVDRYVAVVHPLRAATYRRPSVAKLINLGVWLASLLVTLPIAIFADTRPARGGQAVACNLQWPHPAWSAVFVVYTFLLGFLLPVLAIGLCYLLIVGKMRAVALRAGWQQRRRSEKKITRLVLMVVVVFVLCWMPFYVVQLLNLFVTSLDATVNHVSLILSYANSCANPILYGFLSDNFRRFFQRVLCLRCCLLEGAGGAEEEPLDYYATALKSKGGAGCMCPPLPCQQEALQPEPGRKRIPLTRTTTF

`C[C@@H](O)[C@H](NC(=O)[C@@H]1CSSC[C@H](NC(=O)[C@H](N)Cc2ccc3ccccc3c2)C(=O)N[C@@H](Cc2ccc(O)cc2)C(=O)N[C@H](Cc2c[nH]c3ccccc23)C(=O)N[C@@H](CCCCN)C(=O)N[C@@H]([C@@H](C)O)C(=O)N1)C(N)=O` [Example 1, H-D-β-Nal-Cys-Tyr-D-Trp-Lys-Thr-Cys-Thr-NH2] gave a pKi (human SSTR-2) of 9.12, a pKi (human SSTR-1) of 5.62 and a pKi (human SSTR-3) of 7.01.
In the case of `CC(C)[C@@H]1NC(=O)[C@H](CCCCN)NC(=O)[C@@H](Cc2c[nH]c3ccccc23)NC(=O)[C@H](Cc2ccc(O)cc2)NC(=O)[C@H](C)N(C)C(=O)[C@H](Cc2ccccc2)NC1=O` [Example 76, cyclo(N-Me-Ala-Tyr-D-Trp-Lys-Val-Phe)], the ATCC43504 bacteria number (H. pylori ATCC43504 [1]) was 2.7 ± 1.3 ×10^5 CFU/mL and the “affinity for type 2 (in words)” value (human SSTR-2) was “high affinity”.
`C[C@@H](O)[C@@H]1NC(=O)[C@H](CCCCN)NC(=O)[C@@H](Cc2c[nH]c3ccccc23)NC(=O)[C@H](Cc2ccccc2)NC(=O)[C@H](Cc2ccccc2)NC(=O)[C@@H](N)CSSC[C@@H](C(N)=O)NC(=O)[C@H](Cc2ccccc2)NC1=O` [Example 107, H-Cys-Phe-Phe-D-Trp-Lys-Thr-Phe-Cys-NH2] (H-CFF[dW]KTFC-NH2; disulfide 1-8 (inferred)) was tested, and the ATCC43504 bacteria number (H. pylori ATCC43504 [1]) was 6.5 ± 0.7 ×10^5 CFU/mL, the “affinity for type 5 (in words)” value (human SSTR-5) was “high affinity” and the “affinity for type 1 (in words)” value (human SSTR-1) was “some affinity”. The “affinity for type 3 (in words)” value (human SSTR-3) was “some affinity”.
Work on `NCCCC[C@@H]1NC(=O)[C@@H](Cc2c[nH]c3ccccc23)NC(=O)[C@H](Cc2ccccc2)NC(=O)[C@H](Cc2ccccc2)NC(=O)[C@@H](N)CSSC[C@@H](C(N)=O)NC(=O)[C@H](Cc2ccccc2)NC(=O)[C@H](CO)NC1=O` [Example 108, H-Cys-Phe-Phe-D-Trp-Lys-Ser-Phe-Cys-NH2] (H-CFF[dW]KSFC-NH2; disulfide 1-8 (inferred)) yielded a pKi (human SSTR-2; [3]) of 7.71, a pKi (human SSTR-5; [4]) of 9.07 and a pKi (human SSTR-1; [5]) of 7.55. The pKi (human SSTR-3; [6]) was 7.45.
For `C[C@@H](O)[C@@H]1NC(=O)[C@H](CCCCN)NC(=O)[C@@H](Cc2c[nH]c3ccccc23)NC(=O)[C@H](Cc2ccc(O)cc2)NC(=O)[C@H](Cc2ccccc2)NC(=O)[C@@H](N)CSSC[C@@H](C(N)=O)NC(=O)[C@H](Cc2ccccc2)NC1=O` [Example 109, H-Cys-Phe-Tyr-D-Trp-Lys-Thr-Phe-Cys-NH2] (H-CFY[dW]KTFC-NH2; disulfide 1-8 (inferred)), the ATCC43504 bacteria number (H. pylori ATCC43504 [1]) was 1.4 ± 0.5 ×10^5 CFU/mL, the “affinity for type 2 (in words)” value (human SSTR-2) was “high affinity” and the pKi (human SSTR-2; [3]) was 8.21. The pKi (human SSTR-5; [4]) was 9.47, the “affinity for type 4 (in words)” value (human SSTR-4) was “high affinity” and the pKi (human SSTR-1; [5]) was 7.06. The “affinity for type 3 (in words)” value (human SSTR-3) was “high affinity” and the pKi (human SSTR-3; [6]) was 8.01.
`C[C@@H](O)[C@H](NC(=O)[C@H](Cc1ccccc1)NC(=O)[C@@H](NC(=O)[C@H](CCCCN)NC(=O)[C@@H](Cc1c[nH]c2ccccc12)NC(=O)[C@H](Cc1ccccc1)NC(=O)[C@H](Cc1ccccc1)NC(=O)[C@H](N)Cc1ccccc1)[C@@H](C)O)C(N)=O` [Example 114, H-D-Phe-Phe-Phe-D-Trp-Lys-Thr-Phe-Thr-NH2] (H-[dF]FF[dW]KTFT-NH2) was tested, and the ATCC43504 bacteria number (H. pylori ATCC43504 [1]) was 9.8 ± 2.0 ×10^5 CFU/mL, the “affinity for type 5 (in words)” value (human SSTR-5) was “high affinity” and the “affinity for type 3 (in words)” value (human SSTR-3) was “high affinity”.
Molecule `C[C@@H](O)[C@H](NC(=O)[C@H](Cc1ccccc1)NC(=O)[C@@H](NC(=O)[C@H](CCCCN)NC(=O)[C@@H](Cc1c[nH]c2ccccc12)NC(=O)[C@H](Cc1ccccc1)NC(=O)[C@H](Cc1ccccc1)NC(=O)[C@@H](Cc1ccccc1)NC(=O)CN1CCN(CCO)CC1)[C@@H](C)O)C(N)=O` [Example 118] (X1-[dF]FF[dW]KTFT-NH2) has a pKi (human SSTR-2; read-out: Ki hSSTR-2) of 8.49, a pKi (human SSTR-5) of 9.00 and a pKi (human SSTR-4) of 6.12. For the same molecule, the pKi (human SSTR-1; read-out: Ki hSSTR-1) was 7.32 and the pKi (human SSTR-3; read-out: Ki hSSTR-3) was 7.96.
For `C[C@H](N)C(=O)NCC(=O)N[C@H]1CSSC[C@@H](C(=O)O)NC(=O)[C@H](CO)NC(=O)[C@H]([C@@H](C)O)NC(=O)[C@H](Cc2ccccc2)NC(=O)[C@H]([C@@H](C)O)NC(=O)[C@H](CCCCN)NC(=O)[C@H](Cc2c[nH]c3ccccc23)NC(=O)[C@H](Cc2ccccc2)NC(=O)[C@H](Cc2ccccc2)NC(=O)[C@H](CC(N)=O)NC(=O)[C@H](CCCCN)NC1=O` [somatostatin], the “decrease of bacteria number / suppression of ATCC43504 proliferation” value (H. pylori ATCC43504 [1]) was 49%, the “inhibition of ATCC43504 proliferation (in words)” value (H. pylori ATCC43504 [1]) was “inhibited proliferation of ATCC43504 in a dose-dependent manner” and the NCTC11916 bacteria number (H. pylori NCTC11916) was 2.6±0.2 ×10^6 CFU/mL. For the same molecule, the “inhibition of NCTC11916” value (H. pylori NCTC11916; NCTC11916, 48 h) was 79%, the NCTC11638 bacteria number (H. pylori NCTC11638) was 1.6±0.2 ×10^6 CFU/mL and the “inhibition of NCTC11638” value (H. pylori NCTC11638; NCTC11638, 48 h) was 90%. For the same molecule, the “inhibition of H. pylori proliferation by somatostatin” value (H. pylori ATCC43504 [2]) was 88%.
